From the NIST ThermoML archive (doi:10.1016/j.jct.2012.06.031)

Assay: refractive index (Na D-line) (dimensionless); xn = mol fraction of the nth substance listed
Details: 101 kPa, Liquid, Standard Abbe refractometry

CC(O)CO (stereo not given) [1,2-propanediol] + c1ccncc1
refractive index
Details | x2 = 0 | x2 = 0.1 | x2 = 0.2 | x2 = 0.2999 | x2 = 0.4 | x2 = 0.4999 | x2 = 0.6 | x2 = 0.7001 | x2 = 0.8 | x2 = 0.9
288.15 K | 1.43411 | 1.44356 | 1.4522 | 1.46041 | 1.46838 | 1.47609 | 1.48375 | 1.49129 | 1.49866 | 1.50554
293.15 K | 1.43247 | 1.4418 | 1.4503 | 1.4584 | 1.46629 | 1.47383 | 1.4814 | 1.48884 | 1.49609 | 1.50288
298.15 K | 1.43081 | 1.43993 | 1.44839 | 1.4564 | 1.46417 | 1.47163 | 1.47909 | 1.4864 | 1.49345 | 1.49993
303.15 K | 1.42915 | 1.43816 | 1.4465 | 1.45438 | 1.46204 | 1.4694 | 1.47676 | 1.48397 | 1.49093 | 1.49727
308.15 K | 1.42751 | 1.43643 | 1.44465 | 1.45244 | 1.46 | 1.46728 | 1.47448 | 1.48152 | 1.48841 | 1.49461
313.15 K | 1.42581 | 1.43463 | 1.44276 | 1.45051 | 1.45802 | 1.46517 | 1.47224 | 1.4791 | 1.48589 | 1.49195
318.15 K | 1.42407 | 1.43286 | 1.44082 | 1.44855 | 1.45597 | 1.46296 | 1.46991 | 1.47665 | 1.48321 | 1.4894
323.15 K | 1.4223 | 1.43109 | 1.439 | 1.44676 | 1.45397 | 1.46088 | 1.46777 | 1.47441 | 1.48086 | 1.4869

c1ccncc1 [pyridine] + CCCO
refractive index
Details | x1 = 0.1001 | x1 = 0.1998 | x1 = 0.2999 | x1 = 0.3998 | x1 = 0.5 | x1 = 0.5999 | x1 = 0.7 | x1 = 0.8 | x1 = 0.8998 | x1 = 1
288.15 K | 1.40196 | 1.41533 | 1.42836 | 1.44094 | 1.45341 | 1.46554 | 1.47748 | 1.48907 | 1.50064 | 1.51184
293.15 K | 1.39979 | 1.41307 | 1.42603 | 1.43854 | 1.45095 | 1.46301 | 1.47487 | 1.4864 | 1.49788 | 1.509
298.15 K | 1.39757 | 1.41079 | 1.42367 | 1.43616 | 1.44848 | 1.46047 | 1.47228 | 1.48375 | 1.49514 | 1.50616
303.15 K | 1.39535 | 1.40849 | 1.42136 | 1.43375 | 1.44601 | 1.45795 | 1.46968 | 1.48107 | 1.49238 | 1.50331
308.15 K | 1.3931 | 1.40618 | 1.41898 | 1.43132 | 1.44353 | 1.45541 | 1.46708 | 1.47839 | 1.48965 | 1.50048
313.15 K | 1.39068 | 1.40381 | 1.41659 | 1.42891 | 1.44102 | 1.45287 | 1.46445 | 1.47573 | 1.48683 | 1.49769
318.15 K | 1.3884 | 1.40151 | 1.41425 | 1.42648 | 1.43857 | 1.45038 | 1.46187 | 1.47309 | 1.48411 | 1.49493
323.15 K | 1.38622 | 1.39909 | 1.41179 | 1.42409 | 1.43616 | 1.44788 | 1.45942 | 1.47055 | 1.48155 | 1.49219
